{"source": "paper PMC8936055", "about": "(Journal of natural products, 2022)", "key": {"SARS-CoV-2 [1]": {"test_system": "SARS-CoV-2", "format": "cell-based", "settings": "Calu-3 cells; for Suppression of viral infection relative to DMSO control, initial screen: 0.5 μM for 1, 1 μM for the others, 48 h, Figure 3; for Suppression of viral infection, follow-up experiment: Figure 4"}, "[2]": {"test_system": "primary human airway cells", "settings": "air-liquid interface, 48 h, Figure 5B"}, "SARS-CoV-2 [3]": {"test_system": "SARS-CoV-2", "settings": "air-liquid interface culture, test concentration 10 μM, 48 h"}, "HIV-1 strain 96USHIPS7": {"test_system": "HIV-1 strain 96USHIPS7", "settings": "read-out: IC50 against HIV-1 strain 96USHIPS7; cited from earlier work"}, "HIV-1 strain UG/92/029": {"test_system": "HIV-1 strain UG/92/029", "settings": "read-out: IC50 against HIV-1 strain UG/92/029; cited from earlier work"}, "Plasmodium falciparum": {"test_system": "Plasmodium falciparum", "settings": "human malarial parasite Plasmodium falciparum; cited from earlier work"}, "[4]": {"settings": "cited from earlier work"}, "[5]": {"test_system": "influenza A virus subtype H1N1", "settings": "cited from earlier work"}, "SARS-CoV-2 [6]": {"test_system": "SARS-CoV-2", "settings": "cited from earlier work"}}, "note": "Read-outs that look alike come from different tables or passages of the source.", "data": [{"compound": "CC(=O)C[C@]1(O)c2ccccc2-[n+]2ccc3c([nH]c4ccccc43)c21.O=C([O-])C(F)(F)F", "note": "[Compound 1, homofascaplysin A]", "values": [{"measurement": "Suppression of viral infection relative to DMSO control, initial screen", "setting": "SARS-CoV-2 [1]", "value": "significantly suppressed viral infection"}, {"measurement": "Suppression of viral infection, follow-up experiment", "setting": "SARS-CoV-2 [1]; 2.8 μM", "value": "significant suppression of viral infection"}, {"measurement": "Effect on adenoviral transduction (toxicity control)", "setting": "[2]", "value": "did not affect adenoviral transduction"}]}, {"compound": "C[C@H]1CC[C@H]2C(C)(C)CCC[C@]23Oc2ccc(O)cc2C[C@]13C", "note": "[Compound 2, (+)-aureol]", "values": [{"measurement": "Suppression of viral infection relative to DMSO control, initial screen", "setting": "SARS-CoV-2 [1]", "value": "significantly suppressed viral infection"}, {"measurement": "Suppression of viral infection, follow-up experiment", "setting": "SARS-CoV-2 [1]; 10 μM", "value": "significant suppression of viral infection"}, {"measurement": "Effect on SARS-CoV-2 replication in primary human airway cells", "setting": "SARS-CoV-2 [3]", "value": "ineffective"}]}, {"compound": "CC1=C2Cc3cc(ccc3O)C(=O)O[C@H](C(C)(C)Br)CC[C@](C)(O)[C@H](Br)CC[C@]2(C)[C@@H](Br)CC1", "note": "[Compound 3, bromophycolide A]", "values": [{"measurement": "Suppression of viral infection relative to DMSO control, initial screen", "setting": "SARS-CoV-2 [1]", "value": "significantly suppressed viral infection"}, {"measurement": "Suppression of viral infection, follow-up experiment", "setting": "SARS-CoV-2 [1]; 10 μM", "value": "significant suppression of viral infection"}, {"measurement": "IC50", "setting": "HIV-1 strain 96USHIPS7", "value": 9.8, "unit": "µM"}, {"measurement": "IC50", "setting": "HIV-1 strain UG/92/029", "value": 9.1, "unit": "µM"}, {"measurement": "Blood stage antimalarial activity", "setting": "Plasmodium falciparum", "value": "sub-micromolar"}, {"measurement": "Toxicity in vivo", "setting": "[4]; malaria mouse model", "value": "low toxicity"}, {"measurement": "Bioavailability in vivo", "setting": "[4]; mouse, in vivo", "value": "reasonable bioavailability"}, {"measurement": "In vivo half-life", "setting": "[4]; mouse, in vivo", "value": "short in vivo half-life"}, {"measurement": "Liver metabolism", "setting": "[4]; mouse, in vivo", "value": "rapid liver metabolism"}, {"measurement": "Effect on SARS-CoV-2 replication in primary human airway cells", "setting": "SARS-CoV-2 [3]", "value": "ineffective"}]}, {"compound": "CC(C)=CCC[C@@H](C)[C@H]1CC[C@@]2(C(=O)O)C3=C(CC[C@]12C)[C@@]1(C)CC[C@H](O[C@@H]2OC[C@H](O)[C@H](O[C@@H]4OC[C@H](O)[C@H](O[C@@H]5O[C@H](CO)[C@H](O)[C@H](O)[C@H]5O)[C@H]4O)[C@H]2O[C@@H]2O[C@H](CO)[C@H](O)[C@H](O)[C@H]2O)C(C)(C)C1CC3", "note": "(stereo partly shown) [Compound 13, formoside]", "values": [{"measurement": "Reduction of SARS-CoV-2 infection in a subsequent experiment", "setting": "SARS-CoV-2 [1]; data not shown", "value": "not replicated"}]}, {"compound": "C[C@H]1CC[C@H]2C(C)(C)[C@@H](O)CC[C@]23Oc2c(c(O)cc4c2CNC4=O)C[C@]13C", "note": "[Compound 16, stachyflin]", "values": [{"measurement": "Activity against influenza A virus subtype H1N1", "setting": "[5]", "value": "nanomolar activity"}]}, {"compound": "plitidepsin [Compound 4]", "values": [{"measurement": "Potency against SARS-CoV-2 relative to remdesivir", "setting": "SARS-CoV-2 [6]", "value": "more than 20 times"}]}]}
